In the case of `CCC(=O)c1cnccc1N`, the melting point is reported as 134 to 136 °C. For `CNc1ncc(I)cn1`, the melting point was 134 to 136 °C. In the case of `NNC(=O)c1cc([N+](=O)[O-])c[nH]1`, the melting point is reported as 280 to 282 °C. `O=C(C(Cl)c1ccccc1)N1CCCCC1` (configuration not stated) showed a melting point of 63 to 74 °C. `Cc1ccc(-c2cnnc(N)n2)cc1` gave a melting point of 277 to 279 °C. In the case of `N#CCC(=O)N1CCSCC1`, the melting point is reported as 103 to 105 °C. In the case of `O=C(O)C1C2C3CC4C5CC(C42)C1C53` (configuration not stated), the melting point is reported as 101 to 103 °C. `O=C(O)c1sc(-c2ccccc2)nc1C(F)F` showed a melting point of 179 to 181 °C. For `O=[N+]([O-])c1ccc(Cl)c(S(=O)(=O)N2CCOCC2)c1`, the melting point was 149 to 151 °C. Work on `O=C(O)c1ccc(S(=O)(=O)Cl)cc1F` yielded a melting point of 142 to 144 °C. `CC(NC(=O)OC(C)(C)C)c1ccc(CN)cc1` (configuration not stated) gave a melting point of 78 to 80 °C. Compound `NS(=O)(=O)c1ccc(C(=O)O)c(F)c1` has a melting point of 189 to 191 °C. Work on `Cc1cc(C(=O)O)nn1C(C)(C)C` yielded a melting point of 143 to 145 °C. `CCOC(=O)c1c(N)sc(C(=O)OC)c1CC(=O)OC` gave a melting point of 168 to 170 °C. In the case of `COC(=O)c1cc(N)cc(C(F)(F)F)c1`, the melting point is reported as 78 to 80 °C. Compound `O=C(Nc1cnccn1)c1ccc(I)cc1` has a melting point of 196 to 198 °C. `CC(C)(C)c1ccc(-c2nnc(S)n2N)cc1` gave a melting point of 105 to 106 °C. Compound `O=C(O)CNC(=O)c1ccc(Oc2ccccc2)cc1` has a melting point of 156 to 158 °C. In the case of `CNC(=O)c1cccc(N)c1C`, the melting point is reported as 178 to 180 °C. With `O=C(O)c1ccnc(Cl)c1I` the melting point was 218 to 220 °C. `CC(C)c1ccc(C2(O)CCC(=O)CC2)cc1` gave a melting point of 134 to 136 °C. In the case of `O=C(O)CSc1nc(-c2cccnc2)no1`, the melting point is reported as 154 to 156 °C. Work on `O=S(=O)(Cl)c1ccc(OCC(F)(F)F)cc1` yielded a melting point of 55 to 57 °C. In the case of `Cc1nc2ccc(N)cc2o1`, the melting point is reported as 129 to 131 °C. For `Cc1c(N=C=S)c(=O)n(-c2ccccc2)n1C`, the melting point was 145 to 147 °C. `Cn1nc(Br)c2c(NN)ncnc21` gave a melting point of 198 to 200 °C. Work on `N#Cc1ccccc1NC(=O)CCCC(=O)O` yielded a melting point of 139 to 141 °C. Compound `Nc1ccc2c(c1)C(=O)NC2` has a melting point of 237 to 239 °C. In the case of `Nc1nc2cc(F)c(F)cc2s1`, the melting point is reported as 171 to 173 °C. For `CCOC(=O)C(=O)CC(=O)c1ccc2c(c1)OCO2`, the melting point was 61 to 63 °C. `O=C(O)c1cc([N+](=O)[O-])cc2c1OCCO2` showed a melting point of 248 to 250 °C. For `CCOC(=O)c1cnc(O)nc1C`, the melting point was 179 to 181 °C. `O=C(O)c1cc2ccccc2c(Cl)n1` showed a melting point of 202 to 204 °C. With `CCOC(=O)c1c(C)n(Cc2ccccc2)c2ccc(O)cc12` the melting point was 198 to 200 °C. With `COC(=O)c1nc2ccccc2[nH]1` the melting point was 189 to 191 °C. With `Cc1ccc(-c2noc(N)n2)cc1` the melting point was 214 to 216 °C. With `CC(C)Cc1ccc(C(=O)c2cccs2)cc1` the melting point was 112 to 114 °C. `Cc1nc2c([nH]1)CCC(C(=O)O)C2` (configuration not stated) showed a melting point of 229 to 231 °C. `COC(=O)c1c[nH]c(=O)c([N+](=O)[O-])c1` showed a melting point of 214 to 216 °C. With `Cc1nc(S)n(C2CC2)c1C` the melting point was 178 to 180 °C. With `COc1ccc(-n2c(C)cc(C=O)c2C)cc1` the melting point was 133 to 135 °C. Compound `COc1ccc(N)cc1OCc1ccc2ccccc2n1` has a melting point of 106 to 108 °C. In the case of `CC1Cc2ccc(Br)cc2C1=O` (configuration not stated), the melting point is reported as 69 to 71 °C. Work on `CC(C)c1cc(Br)ccc1O` yielded a melting point of 48 to 50 °C. For `O=C(O)c1cc(S(=O)(=O)Nc2ccccc2F)c[nH]1`, the melting point was 207 to 209 °C. `NC(=O)C1CCc2ccccc2N1` (configuration not stated) showed a melting point of 115 to 117 °C. In the case of `CCOC(C)c1nc(C)c(C(=O)O)s1` (configuration not stated), the melting point is reported as 112 to 114 °C. Work on `CCOc1ccc(S(=O)(=O)N(C)C)cc1N` yielded a melting point of 124 to 126 °C. Work on `Cc1ccc(NC(N)=S)cc1C` yielded a melting point of 184 to 186 °C. `O=C(O)CCNc1nccs1` showed a melting point of 171 to 173 °C. Work on `Oc1cccc(-c2nnc[nH]2)c1` yielded a melting point of 192 to 194 °C. For `NC(=O)COc1ccccc1C(=O)O`, the melting point was 199 to 201 °C. In the case of `Cc1cccc(N2CC(C(=O)O)CC2=O)c1C` (configuration not stated), the melting point is reported as 211 to 213 °C. With `Cc1cc(N)c(N)cc1C` the melting point was 127 to 129 °C. Work on `Cc1ccc(C(C)C)cc1OCC(=O)O` yielded a melting point of 153 to 155 °C. Work on `Nc1nc(C2CC2)c(Cc2ccccc2F)s1` yielded a melting point of 114 to 116 °C. Work on `NC(=O)c1csc(N)n1` yielded a melting point of 196 to 198 °C. Compound `CC1CC(C)CC2(C1)NC(=O)N(CC(=O)O)C2=O` (configuration not stated) has a melting point of 259 to 261 °C. Work on `N#Cc1cccc(-c2cscn2)c1` yielded a melting point of 111 to 113 °C. For `COC(=O)c1ccc(=O)[nH]n1`, the melting point was 188 to 190 °C. For `Nc1cccn(Cc2ccc(F)cc2)c1=O`, the melting point was 110 to 112 °C. For `Nc1sc2c(c1-c1nc3ccccc3[nH]1)CCCC2`, the melting point was 175 to 177 °C. `Cc1ccccc1C(=O)NCCC(=O)O` gave a melting point of 110 to 112 °C. `O=C(CCl)N1N=C(c2ccco2)CC1c1cccs1` (configuration not stated) showed a melting point of 153 to 155 °C. `O=C(O)c1ccc(Oc2ccccc2[N+](=O)[O-])cc1` gave a melting point of 196 to 198 °C. `O=C(O)c1cc(COc2c(Cl)cccc2Cl)on1` showed a melting point of 159 to 161 °C. Work on `O=C(O)c1nccnc1C(=O)Nc1ccc(F)cc1` yielded a melting point of 177 to 179 °C. In the case of `CN(C)C(=O)N1CCCC(C(=O)O)C1` (configuration not stated), the melting point is reported as 123 to 125 °C. For `COc1c(Cl)cc(Cl)cc1C=O`, the melting point was 85 to 87 °C. For `CCOC(=O)c1cnc2ccccc2c1Cl`, the melting point was 37 to 39 °C. For `Clc1cc(NCC2CC2)ncn1`, the melting point was 98 to 100 °C. Compound `Cc1c(S(N)(=O)=O)sc2c(Cl)cccc12` has a melting point of 261 to 263 °C. `CCOC(=O)c1sc(/N=C/N(C)C)c(C#N)c1C` gave a melting point of 151 to 153 °C. Work on `CCCn1c(C)c(C(=O)O)c2cc(OC)ccc21` yielded a melting point of 171 to 173 °C. In the case of `Nc1ncc(Cc2ccc(F)c(F)c2F)s1`, the melting point is reported as 105 to 107 °C. In the case of `CCCCC1(c2ccc(F)cc2)NC(=O)NC1=O` (configuration not stated), the melting point is reported as 113 to 115 °C. Compound `O=C(O)c1cccc(Nc2ncccn2)c1` has a melting point of 270 to 272 °C. `Cc1ccc(C(=O)Nc2ccccc2)cc1N` gave a melting point of 151 to 153 °C. For `COc1cc([N+](=O)[O-])ccc1NC(=O)C(C)Cl` (configuration not stated), the melting point was 85 to 87 °C. With `O=S(=O)(Cl)c1c(Br)cc(F)cc1Br` the melting point was 82 to 84 °C. Work on `COc1ccccc1C1(C(=O)O)CC1` yielded a melting point of 131 to 133 °C. Compound `Cc1ccc(-c2cnnn2-c2ccc(C(=O)O)cc2)cc1` has a melting point of 236 to 238 °C. Work on `O=C(O)CC=Cc1cccc(F)c1` yielded a melting point of 64 to 66 °C. With `Cc1cn(-c2ccccc2)nc1N` the melting point was 119 to 121 °C. For `O=C(O)c1cc(Cl)c2c(c1)OCO2`, the melting point was 239 to 241 °C. With `O=C(O)c1cc(Cl)ccc1NS(=O)(=O)c1ccccc1` the melting point was 184 to 186 °C. In the case of `CC1(C)CC(C)(C)c2cc(O)ccc21`, the melting point is reported as 99 to 101 °C. Work on `Cc1ccc(S(N)(=O)=O)cc1NC(=O)CCl` yielded a melting point of 179 to 181 °C. Work on `CC(=NO)c1ccc(OCc2ccc(F)cc2)cc1` yielded a melting point of 151 to 153 °C. With `CS(=O)(=O)Nc1ccc(C(=O)O)cc1` the melting point was 198 to 200 °C. Compound `CCOC(=O)c1ccc(C#N)c(S)n1` has a melting point of 169 to 171 °C. `CC(C)(C)C(=O)NCC(=O)O` gave a melting point of 132 to 134 °C. For `CC(=O)c1ccc(S(=O)(=O)NCc2ccco2)cc1`, the melting point was 107 to 109 °C. `O=C(NO)c1cccs1` showed a melting point of 124 to 126 °C. Compound `O=Cc1sc(N2CCCCC2)nc1-c1cccs1` has a melting point of 117 to 119 °C. `CN(C)S(=O)(=O)c1ccc(Cl)nc1` showed a melting point of 117 to 119 °C. `CCOc1ccc(N)cc1CO` gave a melting point of 77 to 79 °C. Work on `COC(=O)c1ccccc1CS(=O)(=O)F` yielded a melting point of 89 to 91 °C. Work on `O=S(=O)(Cl)c1c(Cl)ccnc1Cl` yielded a melting point of 79 to 81 °C. For `Cn1c(=O)[nH]c(=O)c2cc(S(N)(=O)=O)cnc21`, the melting point was 311 to 313 °C. Work on `CC1(c2cccc(C(F)(F)F)c2)NC(=O)NC1=O` (configuration not stated) yielded a melting point of 219 to 221 °C. `CC1(C)Cc2ccccc2C1=O` showed a melting point of 41 to 43 °C.

— a melting point compilation (Tetko et al.)
